Values of other authors, collected in US8623409B1, “Clonidine formulation” (Tris Pharma Inc., priority 2010, dated 2014).

Details: plasma level; see US patent application 2008/0152709

Clc1cccc(Cl)c1NC1=NCCN1 [clonidine, N-(2,6-dichlorophenyl)-4,5-dihydro-1H-imidazol-2-amine]
minimum effective dose for clonidine use as an anti-hypertensive agent: 200 pg/mL
